Measured values: patent US20060019241A1, “Na+ and CI-coupled transport system for endogenous opioid peptides” (priority 2004, published 2006)
“Also recorded” adds a separate entry of the source. Ends that are not written are not given here.

How the values were obtained:
[1] = system: enkephalin/endorphin transport system in SK—N—SH cells; test: [^3H]deltorphin II uptake in SK—N—SH cells, effect of peptides and amino acids; format: cell-based, human; details: for Deltorphin II uptake / effect on [^3H]deltorphin II uptake (in words): [^3H]deltorphin II 25 nM, NaCl, 30 minutes; for Deltorphin II uptake: compound 1 mM; for effect on [^3H]deltorphin II uptake (in words): test substance 1 mM; for Ki: read-out: Ki for inhibition of deltorphin II uptake, dose-response studies
Procedure: (§1) Uptake measurements in control ARPE-19 cells and Tat-ARPE-19 cells. Control ARPE-19 cells and Tat-ARPE-19 cells were maintained in 75-cm^2 culture flasks in Dulbecco's modified Eagle's medium/F12 medium (1:1, volume/volume (v/v)) in the presence of fetal bovine serum (10%) and G418 (100 μg/ml). For uptake measurements, cells were released by trypsin treatment and seeded in 24-well culture plates at an initial density of 0.1×10^6 cells/well. The culture medium was replaced with fresh medium on the second day following the initial seeding and uptake measurements were made on the third day. […] After incubation at 37° C. for a desired time, uptake was terminated by the removal of the medium and washing of the cells with ice-cold uptake buffer. The cells were then dissolved in 1% SDS in 0.2 M NaOH and used for measurement of radioactivity. The uptake buffer in most experiments was 25 mM Hepes/Tris (pH 7.5), containing 140 mM NaCl, 5.4 mM KCl, 1.8 mM CaCl2, 0.8 mM MgSO4 and 5 mM glucose.
Since enkephalins and endorphins are relevant to pain perception and to further provide evidence in support of a role for the transport system in opioidergic neurotransmission, the human neuronal cell line SK—N—SH was tested for expression of the transport system. […] Unless otherwise specified, procedures are as detailed in Example 1.
The concentration of enkephalins and dynorphins was 1 mM.
Finally, the relative affinity of various enkephalins and dynorphins for the transport system in SK—N—SH cells was determined.
To the further characterize the opioid transport of the present invention, various specific peptides that act as positive modulators of the enkephalin/endorphin transport system in the human neuronal cell line SK—N—SH were identified. Unless otherwise specified, procedures are as detailed in Example 1. […] Uptake was measured in the presence of NaCl for 30 minutes. The concentration of the dipeptides was 1 mM.
Uptake was measured in the presence of NaCl for 30 minutes. The concentration of the tripeptides was 1 mM.
Unless otherwise specified, procedures are as described in more detail in Example 1.
The dose-response relationship for the inhibition of the enkephalin/endorphin transport system by L-Lysine and its methyl and ethyl esters is shown in FIG. 15.

[2] = system: deltorphin II transport system in Tat-ARPE-19 cells; test: Inhibition of [^3H]deltorphin II uptake in Tat-ARPE-19 cells; format: cell-based, human; details: [^3H]deltorphin II 50 nM; for competition with deltorphin for the uptake process (in words): Tat-ARPE-19 / RPE cells, compound 1 mM; for [^3H] Deltorphin II uptake / [^3H] Deltorphin II uptake (%) of control: Tat-ARPE-19 cells, 30 minutes, NaCl, inhibitor 1 mM; for [^3H] Deltorphin II uptake (%) of control: control = 100
Source text: Stable transfection of ARPE-19 cells with pcDNA-Tat cDNA. The pGEM2-Tat cDNA construct contained as the insert a 295 basepair (bp) fragment encoding the first exon of HIV-1 Tat gene joined to a 145 bp pET3A transcription terminator. The entire insert (440 bp) was removed from the construct by digestion with PstI and EcoRI and ligated into the multiple cloning region of pcDNA3.1 (−) vector at PstI/EcoRI site so that the insert is downstream of the cytomegalovirus (CMV) promoter. The resultant construct was sequenced to confirm the orientation of the insert. This construct was electroporated into ARPE-19 cells and the stably transfected cell clones were isolated in the presence of Geneticin (G418). To serve as a control, empty pcDNA3.1 vector was electroporated into ARPE-19 cells in an identical manner and the clones harboring the vector were selected by G418 resistance.
as §1
When the influence of Na^+ on the uptake process was investigated, the concentration of NaCl in the uptake buffer was adjusted, as desired, by isoosmotically replacing NaCl with N-methyl-D-glucamine chloride. To assess the influence of Cl^− on the uptake process, the composition of the uptake medium was modified by replacing KCl and CaCl2 with equimolar concentrations of potassium gluconate and calcium gluconate and the concentration of NaCl was adjusted, as desired, by iso-osmotically replacing NaCl with sodium gluconate. Saturation kinetics were analysed by fitting the data to the Michaelis-Menten equation. The Michaelis-Menten constant, Kt, was calculated by non-linear regression analysis and then confirmed by linear regression. Na^+- and Cl^−-activation kinetics were analyzed by fitting the data to the Hill equation and the Hill coefficients for Na^+ and Cl^− (h; the number of Na^+ and Cl^− ions involved in the activation process) and the K0.5 values (the concentration of Na^+ and Cl^−-needed for half-maximal activation) were determined from the analysis. Again, these constants were first calculated by non-linear regression methods and subsequently confirmed by linear regression methods. Experiments were repeated three times in duplicate and the results are given as means±S.E.M.
Substrate specificity of the deltorphin transport system. […] These peptides consisted of 4-13 amino acids.
Relative affinities of endogenous opioid peptides for the transport system.

Row | Compound | Deltorphin II uptake [1] [pmol/30 min/mg protein] | also measured
1 | NCCCCCN [1,5-diaminopentane] | 3.24 ± 0.16 | 
2 | NCCCCCC(=O)O [6-amino hexanoic acid] | 2.92 ± 0.18 | 
3 | NCCCC[C@@H](N)C(=O)O [D-Lys, D-lysine] | 2.60 ± 0.31 | effect on [^3H]deltorphin II uptake (in words) [1]: no effect
4 | C[C@@H](N)C(=O)O [D-alanine] |  | effect on [^3H]deltorphin II uptake (in words) [1]: significant inhibition
5 | NCCCC(=O)O [GABA] | 2.62 ± 0.13 | 
6 | NCCCCCCN [Hexamethylenediamine] | 2.83 ± 0.13 | 
7 | N=C(N)NCCC[C@H](N)C(=O)O [L-Arg, L-arginine] | 1.46 ± 0.12 | effect on [^3H]deltorphin II uptake (in words) [1]: significant inhibition
8 | C[N+](C)(C)C[C@H](O)CC(=O)[O-] [L-Carnitine] | 2.34 ± 0.12 | 
9 | NC(=O)NCCC[C@H](N)C(=O)O [L-Citrulline] | 2.18 ± 0.06 | 
10 | NCCCC[C@H](N)C(N)=O [L-Lys-amide] | 2.92 ± 0.09 | 
11 | COC(=O)[C@@H](N)CCCCN [L-Lys-methyl ester, L-lysylmethyl ester] | 0.28 ± 0.01 | Ki [1]: 169 ± 9 µM
12 | CC(=N)NCCCC[C@H](N)C(=O)O [L-NIL] | 2.40 ± 0.15 | 
13 | NCCC[C@H](N)C(=O)O [L-Ornitine] | 1.87 ± 0.08 | 
14 | CC(C)C[C@H](N)C(=O)O [L-leucine] |  | effect on [^3H]deltorphin II uptake (in words) [1]: significant inhibition
15 | CC(C)[C@H](N)C(=O)O [L-valine] |  | effect on [^3H]deltorphin II uptake (in words) [1]: significant inhibition
16 | CCOC(=O)[C@@H](N)CCCCN [Lys-ethyl ester, L-lysylethyl ester] | 0.55 ± 0.05 | Ki [1]: 154 ± 34 µM
17 | C[N+](C)(C)CCCC[C@H](N)C(=O)O [Trimethyl-L-Lys] | 2.39 ± 0.11 | 
18 | COC(=O)[C@H](CCCCN)NC(C)=O [α-N-acetyl-L-Lys-methyl ester] | 2.37 ± 0.20 | 
19 | CC(=O)N[C@@H](CCCCN)C(=O)O [α-N-acetyl-L-Lys] | 2.82 ± 0.08 | 
20 | NCC(=O)CCC(=O)O [δ-amino-levulinic acid] | 2.68 ± 0.18 | 
21 | CC(=O)NCCCC[C@H](N)C(=O)O [ε-N-acetyl-L-Lys] | 2.38 ± 0.13 | 
22 | Glu-Gly-Phe |  | effect on [^3H]deltorphin II uptake (in words) [1]: ability to stimulate the uptake
23 | Tyr-Pro-Leu-Gly-NH2 (YPLG-NH2) [Tyr-MIF-1] |  | competition with deltorphin for the uptake process (in words) [2]: no or little inhibition; also recorded: not recognized; [^3H] Deltorphin II uptake [2]: 9.20 ± 0.15 pmol/mg protein/30 min; [^3H] Deltorphin II uptake (%) of control [2]: 119%
24 | YGGFMK [α-Neo-endorphin (1-6)] |  | competition with deltorphin for the uptake process (in words) [2]: marked inhibition; [^3H] Deltorphin II uptake [2]: 0.19 ± 0.01 pmol/mg protein/30 min; [^3H] Deltorphin II uptake (%) of control [2]: 3%
25 | YPFPGPI [β-Casomorphin] |  | [^3H] Deltorphin II uptake [2]: 2.03 ± 0.05 pmol/mg protein/30 min; [^3H] Deltorphin II uptake (%) of control [2]: 26%
